The nature of this data set: Observation of the crystals using a scanning electron microscope; measurement of the crystal thickness. The following applies: scanning electron microscope image. The format is physicochemical. The procedure:
The ascorbic acid crystals contained in the ascorbic acid dispersion material of the present invention obtained in Examples 1 to 3 were observed using a scanning electron microscope. 3. 5 mL of the ascorbic acid dispersion material of the present invention obtained in Examples 1 to 3 as an analyte and 0.5 g of commercially available ascorbic acid crystal powder were both infused into 20 mL of the dispersion medium prepared in 2, lightly shaken, and mixed. 6. The operations of 4 and 5 were further carried out to remove the solvent component of the ascorbic acid dispersion material of the present invention, following which the operation of 4 was further carried out to precipitate particles of the ascorbic acid, and remove the supernatant, and the particles were dried at a low temperature to obtain particulate powder. […]

For `O=C1O[C@H]([C@@H](O)CO)C(O)=C1O` [ascorbic acid crystal powder, ascorbic acid], the Crystal shape result is “indeterminate crystal shape”.

(Values after US11234920B2, “Manufacturing method of an ascorbic acid dispersion material” (priority 2015, dated 2022).)
